Test [1] deals with T1, PPARG/RXRA LBD heterodimer (Homo sapiens, UniProt P37231).
T1 construct: His-TEV-Q203-Y477; Uniprot ID P37231-2; made in house; host or cells: E. coli
T1 sequence (P37231 203-477 isoform P37231-2): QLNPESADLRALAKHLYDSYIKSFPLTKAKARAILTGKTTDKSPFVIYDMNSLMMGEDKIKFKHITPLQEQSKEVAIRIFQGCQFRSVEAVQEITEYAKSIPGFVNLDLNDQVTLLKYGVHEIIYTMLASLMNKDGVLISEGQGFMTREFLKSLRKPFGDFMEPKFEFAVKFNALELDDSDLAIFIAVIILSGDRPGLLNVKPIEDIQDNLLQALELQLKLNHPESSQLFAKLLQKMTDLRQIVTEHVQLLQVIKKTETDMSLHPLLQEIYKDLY
T1 sequence (P19793 228-462 partner limits assumed): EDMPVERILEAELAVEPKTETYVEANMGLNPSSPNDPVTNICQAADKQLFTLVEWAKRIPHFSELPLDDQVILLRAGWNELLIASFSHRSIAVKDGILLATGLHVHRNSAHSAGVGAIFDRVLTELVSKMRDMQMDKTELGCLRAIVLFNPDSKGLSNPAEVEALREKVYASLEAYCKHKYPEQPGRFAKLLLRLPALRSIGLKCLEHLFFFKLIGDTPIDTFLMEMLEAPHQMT
Nature of the test: PPARγ-MED1 blockade assay (TR-FRET, biotinylated MED1 LxxLL peptide). It is filed as biochemical. The following applies: WT PPARG LBD/WT RXRA LBD, 80 nM Rosiglitazone, 3 hours. As to the method: PPARγ-MED1 Blockade Assay:
Compound potency (IC50) and maximal extent of MED1 repulsion to PPARG were assessed a TR-FRET binding assay measuring association of a biotinylated MED1 LxxLL peptide (Biotin-[…]-amide) to PPARG/RXRA LBD heterodimer. Specifically, a 20 microliters of TR-FRET master mix consisting of 2 nM WT PPARG LBD (E. coli expressed, His-TEV-Q203-Y477; Uniprot ID P37231-2), 2 nM WT RXRA LBD (E. coli expressed, Flag-TEV-E228-T462; […]. Mixtures were incubated for 3 hours and read in an EnVision plate reader (Perkin Elmer) with Ex/Em 615/665. To determine the potency (IC50) and extent of MED1 repulsion, TR-FRET ratios were normalized to the average ratio of DMSO control wells (0%) and to the average minimum ratio for positive control compound (GW9662 (2-chloro-5-nitrobenzanilide); defined as 100%) in CDD Vault and analyzed using the Levenberg-Marquardt algorithm.

Test [2] has as its target T2, PPARG/RXRA LBD heterodimer (Homo sapiens, UniProt P37231).
T2 construct: His-TEV-Q203-Y477; Uniprot ID P37231-2; made in house; host or cells: E. coli
The experiment in a line: PPARγ-NCOR1 recruitment assay (TR-FRET, biotinylated NCOR1 ID2 peptide). It is filed as biochemical. The conditions noted are these: 80 nM Rosiglitazone, 3 hours, read-out: PPARG-NCOR recruitment assay EC50. As to the method: PPARγ-NCOR1 Recruitment Assay:
Compound potency (EC50) and maximal extent of NCOR1 recruitment to PPARG were assessed a TR-FRET binding assay measuring association of a biotinylated NCOR1 ID2 peptide (Biotin-[…]-amide) to PPARG/RXRA LBD heterodimer. Specifically, a 20 microliters of TR-FRET master mix consisting of 2 nM WT PPARG LBD (E. coli expressed, His-TEV-Q203-Y477; Uniprot ID P37231-2), 2 nM WT RXRA LBD or mutant S427F RXRA LBD (E. coli expressed, Flag-TEV-E228-T462; […]. Mixtures were incubated for 3 hours and read in an EnVision plate reader (Perkin Elmer) with Ex/Em 615/665. To determine the potency (EC50) and extent of NCOR1 recruitment, TR-FRET ratios were normalized to the average ratio of DMSO control wells (0%) and to the average maximum ratio for positive control compound (T0070907 (2-chloro-5-nitro-N-4-pyridinyl-benzamide); defined as 100%) in CDD Vault and analyzed using the Levenberg-Marquardt algorithm.
(In TR-FRET formats the signal depends on donor and acceptor labels being close together.)
T2 sequence (O75376 2251-2273 partner, one chain of several): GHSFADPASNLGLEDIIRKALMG

Test [3] relates to ANGPTL4, a PPARG target gene, in HT1197 (RXRA S427F mutation) cells. The experiment in a line: Bladder cancer pharmacodynamic assay, HT1197 cell assay (qPCR of ANGPTL4). The test is classed as cell-based. The following applies: Homo sapiens, 24 hours, 100 nM compound, relative to DMSO control. As to the method:
Bladder Cancer Pharmacodynamic Assay
5637 (PPARG amplified) and HT1197 (RXRA S427F mutation) cells were used for assessment of modulation of PPARG target genes using quantitative PCR. Cells were treated for 24 hours with PPARG inverse agonists prior to analysis of FABP4 (IDT, Cat: Hs.PT 58.20106818) and ANGPTL4 (IDT, Cat: Hs.PT 58.25480012) expression, with expression of the housekeeping gene TBP (IDT, Cat: Hs.PT 58v.39858774) used to normalize expression across samples. Quantitative PCR was performed using an ABI QuantStudio 7 Flex Reaction system. Data were analyzed and reported relative to DMSO control using the comparative Ct method (ΔΔCt).

Turning to `N#Cc1ccc(Cl)c(-c2cc(=O)c3c(F)c(-c4ccc(C(=O)O)cc4)c(F)cc3[nH]2)c1` [Example 75, 4-(2-(2-chloro-5-cyanophenyl)-5,7-difluoro-4-oxo-1,4-dihydroquinolin-6-yl)benzoic acid], the EC50 in test [1] and in test [2] was 1000 to 10000 nM throughout. For the same compound, the inhibition (commonly the percentage by which the read-out fell short of the control) at 0.1 µM in test [3] was determined as 20%.
With `COc1cc(F)cc2[nH]c(-c3cc(C#N)ccc3Cl)cc(=O)c12` [Example 21, 4-chloro-3-(7-fluoro-5-methoxy-4-oxo-1,4-dihydroquinolin-2-yl)benzonitrile], the EC50 in test [1] and in test [2] was 1000 to 10000 nM in each case. In addition, in test [3], at 0.1 µM the inhibition was 87%.
In the case of `N#Cc1ccc(Cl)c(-c2cc(=O)c3c(F)c(-c4ccc(C(F)F)cn4)c(F)cc3[nH]2)c1` [Example 61, 4-chloro-3-(6-(5-(difluoromethyl)pyridin-2-yl)-5,7-difluoro-4-oxo-1,4-dihydroquinolin-2-yl)benzonitrile], the concentration for a half-maximal effect (EC50) in test [1] and in test [2] was 100 to 1000 nM throughout. The same compound displayed an inhibition at 0.1 µM in test [3] of 70%.
As for `N#Cc1ccc(Cl)c(-c2cc(=O)c3c(F)c(-c4cn[nH]c4)c(F)cc3[nH]2)c1` [Example 62, 4-chloro-3-(5,7-difluoro-4-oxo-6-(1H-pyrazol-4-yl)-1,4-dihdroquinolin-2-yl)benzonitrile], the concentration giving a half-maximal response (EC50) in test [1] and in test [2] was 100 to 1000 nM throughout. Besides, in test [3], the inhibition at 0.1 µM amounted to 40%.
Consider `Cc1ccc(-c2c(F)cc3[nH]c(-c4cc(C#N)ccc4Cl)cc(=O)c3c2F)cn1` [Example 46, 4-chloro-3-(5,7-difluoro-6-(6-methylpyridin-3-yl)-4-oxo-1,4-dihydroquinolin-2-yl)benzonitrile], for which the EC50 in test [1] and in test [2] was 100 to 1000 nM in each case. The compound also returned an inhibition at 0.1 µM in test [3] of 80%.
As to `CNC(=O)c1c(F)cc2[nH]c(-c3cc(C#N)ccc3Cl)cc(=O)c2c1F` [Example 26, 2-(2-chloro-5-cyanophenyl)-5,7-difluoro-N-methyl-4-oxo-1,4-dihydroquinoline-6-carboxamide], the EC50 (in general, the concentration giving half of the maximal effect) is 1000 to 10000 nM in test [1] and over 10000 nM in test [2]. In test [3], this compound displayed an inhibition at 0.1 µM of 21%.
For `CN(C)C(=O)[C@H]1CCCN(c2c(F)cc3[nH]c(-c4cc(C#N)ccc4Cl)cc(=O)c3c2F)C1` [Example 115, (S)-1-(2-(2-chloro-5-cyanophenyl)-5,7-difluoro-4-oxo-1,4-dihydroquinolin-6-yl)-N,N-dimethylpiperidine-3-carboxamide] the same measures were 1000 to 10000 nM, 100 to 1000 nM and 80%.
Taken in the same sequence, the figures for `N#Cc1ccc(Cl)c(-c2cc(=O)c3c(F)c(-c4ccc(CC(=O)O)cc4)c(F)cc3[nH]2)c1` [Example 76, 2-(4-(2-(2-chloro-5-cyanophenyl)-5,7-difluoro-4-oxo-1,4-dihydroquinolin-6-yl)phenyl)acetic acid] were 100 to 1000 nM, 100 to 1000 nM and 39%.
In the case of `CS(=O)(=O)C1CN(c2c(F)cc3[nH]c(-c4cc(C#N)ccc4Cl)cc(=O)c3c2F)C1` [Example 101, 4-chloro-3-(5,7-difluoro-6-(3-(methylsulfonyl)azetidin-1-yl)-4-oxo-1,4-dihydroquinolin-2-yl)benzonitrile], the EC50 in test [1] and in test [2] was 1000 to 10000 nM in each case. The same compound returned an inhibition at 0.1 µM in test [3] of 52%.
`N#Cc1ccc(Cl)c(-c2cc(=O)c3c(F)c(N4CCS(=O)(=O)CC4)c(F)cc3[nH]2)c1` [Example 110, 4-chloro-3-(6-(1,1-dioxidothiomorpholino)-5,7-difluoro-4-oxo-1,4-dihydroquinolin-2-yl)benzonitrile]: the half-maximal effective concentration (EC50) in test [1] and in test [2] was 1000 to 10000 nM in each case. The same compound gave an inhibition at 0.1 µM in test [3] of 37%.
Take `N#Cc1ccc(Cl)c(-c2cc(=O)c3c(F)c(-c4nccc(=O)[nH]4)c(F)cc3[nH]2)c1` [Example 68, 4-chloro-3-(5,7-difluoro-4-oxo-6-(6-oxo-1,6-dihydropyrimidin-2-yl)-1,4-dihydroquinolin-2-yl)benzonitrile]: the EC50 in test [1] and in test [2] was 1000 to 10000 nM in each case. In test [3], the inhibition at 0.1 µM amounted to 28%.
In the case of `Cc1ncc(-c2c(F)cc3[nH]c(-c4cc(C#N)ccc4Cl)cc(=O)c3c2F)cn1` [Example 42, 4-chloro-3-(5,7-difluoro-6-(2-methylpyrimidin-5-yl)-4-oxo-1,4-dihydroquinolin-2-yl)benzonitrile], the EC50 in test [1] and in test [2] was 100 to 1000 nM each time. For the same compound, the inhibition at 0.1 µM in test [3] is 74%.
In the case of `Cc1c(F)cc2[nH]c(-c3cc(C#N)ccc3Cl)cc(=O)c2c1F` [Example 15, 4-chloro-3-(5,7-difluoro-6-methyl-4-oxo-1,4-dihydroquinolin-2-yl)benzonitrile], the EC50 lay within 10 to 100 nM in test [1] and 100 to 1000 nM in test [2]. In test [3], this compound yielded an inhibition at 0.1 µM of 89%.
Taken in the same sequence, the figures for `N#Cc1ccc(Cl)c(-c2cc(=O)c3c(F)c(-c4ccnc(CO)c4)c(F)cc3[nH]2)c1` [Example 71, 4-chloro-3-(5,7-difluoro-6-(2-(hydroxymethyl)pyridin-4-yl)-4-oxo-1,4-dihydroquinolin-2-yl)benzonitrile] were 1000 to 10000 nM, 1000 to 10000 nM and 51%.
Taken in the same sequence, the figures for `CN1CCN(c2cc3c(=O)cc(-c4cc(C#N)ccc4Cl)[nH]c3cc2Cl)CC1` [Example 105, 4-chloro-3-(7-chloro-6-(4-methylpiperazin-1-yl)-4-oxo-1,4-dihydroquinolin-2-yl)benzonitrile] were 1000 to 10000 nM, 1000 to 10000 nM and 60%.
Taken in the same sequence, the figures for `N#Cc1ccc(Cl)c(-c2cc(=O)c3c(F)c(-c4ccc(C(F)(F)F)cn4)c(F)cc3[nH]2)c1` [Example 55, 4-chloro-3-(5,7-difluoro-4-oxo-6-(5-(trifluoromethyl)pyridin-2-yl)-1,4-dihydroquinolin-2-yl)benzonitrile] were 100 to 1000 nM, 100 to 1000 nM and 65%.
Regarding `N#Cc1ccc(Cl)c(-c2cc(=O)c3c(F)c(-c4ccc(C(F)(F)F)nc4)c(F)cc3[nH]2)c1` [Example 37, 4-chloro-3-(5,7-difluoro-4-oxo-6-(6-(trifluoromethyl)pyridin-3-yl)-1,4-dihydroquinolin-2-yl)benzonitrile], the EC50 in test [1] and in test [2] was 100 to 1000 nM in each case. Moreover, in test [3], the inhibition at 0.1 µM amounted to 87%.
Turning to `N#Cc1ccc(Cl)c(-c2cc(=O)c3c(F)c(C4COC4)c(F)cc3[nH]2)c1` [Example 45, 4-chloro-3-(5,7-difluoro-6-(oxetan-3-yl)-4-oxo-1,4-dihydroquinolin-2-yl)benzonitrile], the EC50 in test [1] and in test [2] was 100 to 1000 nM in each case. At 0.1 µM the inhibition in test [3] was 66%.
Turning to `Cc1cn(-c2c(F)cc3[nH]c(-c4cc(C#N)ccc4Cl)cc(=O)c3c2F)cn1` [Example 30, 4-chloro-3-(5,7-difluoro-6-(4-methyl-1H-imidazol-1-yl)-4-oxo-1,4-dihydroquinolin-2-yl)benzonitrile], the EC50 in test [1] and in test [2] was 100 to 1000 nM in each case. In addition, in test [3], testing at 0.1 µM gave an inhibition of 39%.
